{"source": "paper PMC2662459", "about": "“Developmental Toxicity of Ochratoxin A in Rat Embryo Midbrain Micromass Cultures” (International Journal of Molecular Sciences, 2008)", "key": {"[1]": {"test_system": "neurons and astrocytes of ventral mesencephalon", "settings": "protein and DNA synthesis, rat embryo brain aged 15–16 days, cited from earlier work"}, "[2]": {"test_system": "rat embryo midbrain micromass cultures (neurospheres)", "assay": "Differentiation, computerised image analysis of haematoxylin stained neurospheres", "format": "cell-based", "procedure": "(§1) This study was carried out according to compliance with bioethical principles. Wistar albino rats were housed under standard laboratory condition of lighting (12 h dark/12 h light), temperature (20 ± 2 °C), and relative humidity (50 – 60%) with free access to commercial feed (Murigan) and tap water. Animals (10–12 week old) were mated overnight and the appearance of a vaginal plug on the next morning was considered as day one of pregnancy. Rat embryos were collected on day 13 of gestation. Procedures were followed essentially as described in INVITTOX Protocol No. 114 [23].\n(§2) Tissues were pooled from a number of embryos, washed and incubated for 20 min at 37 °C in sequence in Earle’s balanced salt solution calcium and magnesium-free (CMF, GIBCO), and 1% trypsin (GIBCO) in CMF. Then the tissues were washed in CMF and culture medium (Ham’s F-12 nutrient mixture: foetal bovine serum: L-glutamine: penicillin/streptomycin - 88:10:1:1 v/v – all materials were from GIBCO). A single cell suspension was ensured by mechanical dissociation followed by passing the suspension through sterile 10 μm nylon mesh. Viable cells density was assessed by trypan blue exclusion assay using Bürker’s haemocytometer.\n(§3) High-cell-density cultures were set up carefully as a 5–10 μL drop in the centre of each well of 96-well fibronectin coated microplate (BECTON DICKINSON), so that number of cells /well was 5 × 10^4. After 2 h incubation (37°C, 5% CO2) the cells were exposed to different concentrations of tested compounds and incubated five days. Then dual assessment i.e. cytotoxicity and an impact of tested compound on cells differentiation (embryotoxicity) were done in the same cultures.\nAfter removing the eluted solution, the cells were fixed in 10% formaldehyde for 20 min and stained (approximately 10 s) with Gill’s haematoxylin. Morphometric analysis was performed on digitised images of cells taken with Nikon SMZ stereoscopic microscope linked to Panasonic CCD BP-KR 222E colour camera. The number of neurospheres (containing differentiated neural cells) was counted and their total and individual area was measured using computer image analysis software (LUCIA Measurement System).\nThe values of drug concentration, which inhibited cells viability by 50% (IC50) and reduced differentiation by 50% (ID50) when compared to unexposed control cells, were calculated according to Hill’s equation (sigmoidal model of concentration-response curve). Statistically significant differences between mean values obtained in immunoenzymatic analysis were determined based on analysis of variance (ANOVA) followed by Tukey – Kramer post-hoc test. Values of P < 0.05 were considered as statistically significant. All calculations were done using LSW Data Analysis Toolbox ver. 1.1.1. (MDL® Information Systems, Inc.) in Microsoft Excel 2000 spreadsheet and Kyplot software (Koichi Yoshioka, version 2.0 beta 4). In order to classify embryotoxic potential the mean inhibition concentrations for differentiation (ID50) of test chemical was used and the biostatistically based prediction model (PM) was applied. […] The function providing the highest value was used to determine the class of embryotoxicity (class 1 – non-embryotoxic, class 2 – weakly embryotoxic, class 3 – strongly embryotoxic)."}, "[3]": {"test_system": "foetuses of pregnant rats", "settings": "single oral dose; cited from earlier work"}, "mice offspring brain": {"test_system": "mice offspring brain", "settings": "three month mice offspring exposed prenatally; cited from earlier work"}, "[4]": {"test_system": "MAP2 expression (neurons in late stage of development)", "assay": "Differentiation, immunoenzymatic determination of MAP2 expression", "format": "cell-based, rat", "settings": "for Inhibition of differentiation, ID50: Expression of MAP2 (OD, 450 nm): five days exposure, mean±SD from 3 independent experiments", "procedure": "as §1, §2\nas §3, with “Then dual assessment i.e. cytotoxicity and an impact of tested compound on cells differentiation (embryotoxicity) were done in the same cultures.” left out\n(§4) To indicate the target cells damaged, immunofluorescent (IF) and immunoenzymatic (IE) staining was performed. […] IF staining fluorescence was examined using a fluorescent microscope (λ = 490 nm). In IE staining, a substrate (3,3’,5,5’-tetramethylbenzidine, SIGMA) was added (100 μL/well) and reaction was evaluated for 30 min at room temperature. […] The expression level of particular proteins was determined by measuring optical density at 450 nm. […]"}, "in vitro": {"assay": "in vitro", "format": "cell-based", "settings": "Wistar albino, rat", "procedure": "as §1\nas §2, with “A single cell suspension was ensured by mechanical dissociation followed by passing the suspension through sterile 10 μm nylon mesh.” left out, “haemocytometer. […]” for “haemocytometer.”\nCytotoxicity was quantified using neutral red uptake test (NRU). […] The eluted stain intensity (optical density, OD) was measured at 540 nm following at least 2 h incubation. Surviving cell number was directly related to the absorbance of the eluted stain. […]"}, "[5]": {"test_system": "βIII tubulin expression (neurons in early stage of development)", "assay": "Differentiation, immunoenzymatic determination of βIII-tubulin expression", "format": "cell-based, rat", "settings": "for Inhibition of differentiation, ID50: Expression of βIII tubulin (OD, 450 nm): five days exposure, mean±SD from 3 independent experiments", "procedure": "as §1, §2\nas §3, with “Then dual assessment i.e. cytotoxicity and an impact of tested compound on cells differentiation (embryotoxicity) were done in the same cultures.” left out\nas §4"}, "[6]": {"test_system": "neurons and astrocytes of cerebellum", "settings": "protein and DNA synthesis, rat embryo brain aged 15–16 days, cited from earlier work"}, "[7]": {"test_system": "GFAP expression (astrocytes)", "assay": "Differentiation, immunoenzymatic determination of GFAP expression", "format": "cell-based, rat", "settings": "for Inhibition of differentiation, ID50: Expression of GFAP (OD, 450 nm): five days exposure, mean±SD from 3 independent experiments", "procedure": "as §1, §2\nas §3, with “Then dual assessment i.e. cytotoxicity and an impact of tested compound on cells differentiation (embryotoxicity) were done in the same cultures.” left out\nas §4"}, "[8]": {"test_system": "rat embryo midbrain micromass cultures", "format": "cell-based", "procedure": "The values of drug concentration, which inhibited cells viability by 50% (IC50) and reduced differentiation by 50% (ID50) when compared to unexposed control cells, were calculated according to Hill’s equation (sigmoidal model of concentration-response curve). Statistically significant differences between mean values obtained in immunoenzymatic analysis were determined based on analysis of variance (ANOVA) followed by Tukey – Kramer post-hoc test. Values of P < 0.05 were considered as statistically significant. All calculations were done using LSW Data Analysis Toolbox ver. 1.1.1. (MDL® Information Systems, Inc.) in Microsoft Excel 2000 spreadsheet and Kyplot software (Koichi Yoshioka, version 2.0 beta 4). In order to classify embryotoxic potential the mean inhibition concentrations for differentiation (ID50) of test chemical was used and the biostatistically based prediction model (PM) was applied. It is based on the linear discriminate analysis of three functions: function I: 6.65 × log (ID50)–9.49; function II: 6.16 × log (ID50)–8.29; function III: –1.31 × log (ID50)–1.42. The function providing the highest value was used to determine the class of embryotoxicity (class 1 – non-embryotoxic, class 2 – weakly embryotoxic, class 3 – strongly embryotoxic)."}, "[9]": {"settings": "five days exposure, computerised image analysis, mean±SD from 3 independent experiments"}}, "note": "Where a name gives a salt, the structure may show the parent alone. Read-outs that look alike come from different tables or passages of the source.", "data": [{"smiles": "C[C@@H]1Cc2c(Cl)cc(C(=O)N[C@@H](Cc3ccccc3)C(=O)O)c(O)c2C(=O)O1", "note": "[OTA, ochratoxin A]", "values": [{"measurement": "Median inhibition concentration, astrocytes ventral mesencephalon", "setting": "[1]", "result": "~16.2 ± 2.15", "unit": "µg/mL"}, {"measurement": "Median inhibition concentration, neurons ventral mesencephalon", "setting": "[1]", "result": "~5.6 ± 0.40", "unit": "µg/mL"}, {"measurement": "IC50", "setting": "[1]; read-out: Median inhibition concentration, astrocytes ventral mesencephalon", "result": "~40", "unit": "µM"}, {"measurement": "IC50", "setting": "[1]; read-out: Median inhibition concentration, neurons ventral mesencephalon", "result": "~14", "unit": "µM"}, {"measurement": "IC50/ID50 ratio: Number of neurospheres", "setting": "[2]; NRU IC50 over ID50", "result": 0.7}, {"measurement": "IC50/ID50 ratio: Particular area of neurospheres", "setting": "[2]; NRU IC50 over ID50", "result": 1.9}, {"measurement": "IC50/ID50 ratio: Total area of neurospheres", "setting": "[2]; NRU IC50 over ID50", "result": 1.1}, {"measurement": "Inhibition of differentiation, ID50: Number of neurospheres", "setting": "[2]; [9]", "result": "3.40 ± 1.100", "unit": "µg/mL"}, {"measurement": "Inhibition of differentiation, ID50: Particular area of neurospheres", "setting": "[2]; [9]", "result": "1.29 ± 0.923", "unit": "µg/mL"}, {"measurement": "Inhibition of differentiation, ID50: Total area of neurospheres", "setting": "[2]; [9]", "result": "2.19 ± 0.245", "unit": "µg/mL"}, {"measurement": "Differentiated cells after exposure to the two highest concentrations", "setting": "[2]; two highest concentrations, 5 days, haematoxylin staining", "result": "no differentiated cells were observed"}, {"measurement": "Minimum effective teratogenic dose", "setting": "[3]", "result": 2.75, "unit": "mg/kg b.w."}, {"measurement": "Tissue weight and DNA content, cerebral hemispheres", "setting": "mice offspring brain", "result": "80 % of control"}, {"measurement": "Tissue weight and DNA content, remainder of the brain", "setting": "mice offspring brain", "result": "90 % of control"}, {"measurement": "IC50/ID50 ratio: MAP2", "setting": "[4]; NRU IC50 over ID50", "result": 0.6}, {"measurement": "Inhibition of differentiation, ID50: Expression of MAP2 (OD, 450 nm)", "setting": "[4]", "result": "3.90 ± 0.350", "unit": "µg/mL"}, {"measurement": "IC50 at 5 days", "setting": "in vitro; five days exposure, mean±SD from 3 independent experiments, read-out: Cytotoxicity IC50 (Viability, Neutral Red OD, 540 nm)", "result": "2.52 ± 0.062", "unit": "µg/mL"}, {"measurement": "IC50/ID50 ratio: βIII tubulin", "setting": "[5]; NRU IC50 over ID50", "result": 0.5}, {"measurement": "Inhibition of differentiation, ID50: Expression of βIII tubulin (OD, 450 nm)", "setting": "[5]", "result": "4.84 ± 0.581", "unit": "µg/mL"}, {"measurement": "Median inhibition concentration, astrocytes cerebellum", "setting": "[6]", "result": "~27.9 ± 3.6", "unit": "µg/mL"}, {"measurement": "Median inhibition concentration, neurons cerebellum", "setting": "[6]", "result": "~9.7 ± 2.8", "unit": "µg/mL"}, {"measurement": "IC50", "setting": "[6]; read-out: Median inhibition concentration, astrocytes cerebellum", "result": "~69", "unit": "µM"}, {"measurement": "IC50", "setting": "[6]; read-out: Median inhibition concentration, neurons cerebellum", "result": "~24", "unit": "µM"}, {"measurement": "IC50/ID50 ratio: GFAP", "setting": "[7]; NRU IC50 over ID50", "result": 0.5}, {"measurement": "Inhibition of differentiation, ID50: Expression of GFAP (OD, 450 nm)", "setting": "[7]", "result": "4.87 ± 0.351", "unit": "µg/mL"}, {"measurement": "IC50/ID50 ratio, all endpoints", "setting": "[8]; all differentiation endpoints", "result": "< 2"}, {"measurement": "ID50, all endpoints of differentiation", "setting": "[8]; for all endpoints", "result": "< 10", "unit": "µg/mL"}, {"measurement": "Class of embryotoxicity (prediction model)", "setting": "[8]; function with highest value from ID50", "result": "class 3"}]}, {"smiles": "O=c1[nH]cc(F)c(=O)[nH]1", "note": "[5-FU, 5-fluorouracil, reference compound]", "values": [{"measurement": "Inhibition of differentiation, ID50: Expression of MAP2 (OD, 450 nm)", "setting": "[4]", "result": "0.16 ± 0.010", "unit": "µg/mL"}, {"measurement": "IC50", "setting": "in vitro", "result": "0.15 ± 0.01", "unit": "µg/mL"}, {"measurement": "Inhibition of differentiation, ID50: Expression of βIII tubulin (OD, 450 nm)", "setting": "[5]", "result": "0.14 ± 0.010", "unit": "µg/mL"}, {"measurement": "Inhibition of differentiation, ID50: Expression of GFAP (OD, 450 nm)", "setting": "[7]", "result": "0.18 ± 0.012", "unit": "µg/mL"}, {"measurement": "Class of embryotoxicity (prediction model)", "setting": "[8]; rat", "result": "class 3"}]}, {"smiles": "CC1(C)S[C@@H]2[C@H](NC(=O)Cc3ccccc3)C(=O)N2[C@H]1C(=O)O", "note": "[Pen-G, Penicillin G sodium salt, reference compound]", "values": [{"measurement": "Embryotoxicity at fixed concentration", "setting": "[8]", "result": "not embryotoxic"}, {"measurement": "Class of embryotoxicity (prediction model)", "setting": "[8]; rat", "result": "class 1"}]}]}
